Experimental data: patent publication US11083725B2 (priority 2014, dated 2021)

Test system: NHBE cells
Test: Biolog metabolic array: substrate use by NHBE cells with or without CA09 infection
Type: cell-based, human
Conditions: for Substrate use, 590 nm absorbance normalized to zero hour, 1 hr: Biolog PMM2, 1 hr; for Substrate use, 590 nm absorbance normalized to zero hour, 5 hr: Biolog PMM2, 5 hr; for Substrate use, 590 nm absorbance normalized to zero hour, 7 hr: Biolog PMM2, 7 hr
[1] = Control (uninfected) NHBE cells
[2] = Virus (CA09-infected, MOI 1) NHBE cells
[3] = Virus: CA09-infected NHBE cells, MOI 1, Biolog PMM2
[4] = Virus (CA09, MOI 1) infected NHBE cells

Row | Structure (SMILES) | 590 nm absorbance normalized to zero hour (substrate use), 1 hr [1] | 590 nm absorbance normalized to zero hour (substrate use), 2 hr [1] | 590 nm absorbance normalized to zero hour (substrate use), 3 hr [1] | 590 nm absorbance normalized to zero hour (substrate use), 4 hr [1] | 590 nm absorbance normalized to zero hour (substrate use), 6 hr [1] | 590 nm absorbance normalized to zero hour (substrate use), 8 hr [1] | 590 nm absorbance normalized to zero hour (substrate use), 9 hr [1] | 590 nm absorbance normalized to zero hour (substrate use), 10 hr [1] | 590 nm absorbance normalized to zero hour (substrate use), 11 hr [1] | Substrate use, 590 nm absorbance normalized to zero hour, 1 hr [1] | Substrate use, 590 nm absorbance normalized to zero hour, 5 hr [1] | Substrate use, 590 nm absorbance normalized to zero hour, 7 hr [1] | 590 nm absorbance normalized to zero hour (substrate use), 1 hr [2] | 590 nm absorbance normalized to zero hour (substrate use), 2 hr [2] | 590 nm absorbance normalized to zero hour (substrate use), 3 hr [2] | 590 nm absorbance normalized to zero hour (substrate use), 4 hr [2] | 590 nm absorbance normalized to zero hour (substrate use), 6 hr [2] | 590 nm absorbance normalized to zero hour (substrate use), 8 hr [2] | 590 nm absorbance normalized to zero hour (substrate use), 9 hr [2] | 590 nm absorbance normalized to zero hour (substrate use), 10 hr [2] | also measured
1 | OC[C@@H](O)[C@@H](O)[C@H](O)[C@@H](O)CO [D-Sorbitol] | 2.10 | 2.97 | 3.57 | 3.84 | 4.81 | 5.56 | 6.08 | 6.47 | 6.92 | 2.10 | 4.59 | 5.29 | 1.80 | 2.63 | 3.10 | 3.35 | 4.37 | 4.94 | 5.39 | 5.64 | 590 nm absorbance normalized to zero hour (substrate use), 5 hr [2]: 4.00; 590 nm absorbance normalized to zero hour (substrate use), 7 hr [2]: 4.63; 590 nm absorbance normalized to zero hour (substrate use), 11 hr [2]: 6.18; 590 nm absorbance normalized to zero hour (substrate use), 1 hr [3]: 1.80; 590 nm absorbance normalized to zero hour (substrate use), 2 hr [3]: 2.63; 590 nm absorbance normalized to zero hour (substrate use), 3 hr [3]: 3.10; 590 nm absorbance normalized to zero hour (substrate use), 4 hr [3]: 3.35; 590 nm absorbance normalized to zero hour (substrate use), 5 hr [3]: 4.00; 590 nm absorbance normalized to zero hour (substrate use), 6 hr [3]: 4.37; 590 nm absorbance normalized to zero hour (substrate use), 7 hr [3]: 4.63; 590 nm absorbance normalized to zero hour (substrate use), 8 hr [3]: 4.94; 590 nm absorbance normalized to zero hour (substrate use), 9 hr [3]: 5.39; 590 nm absorbance normalized to zero hour (substrate use), 10 hr [3]: 5.64; 590 nm absorbance normalized to zero hour (substrate use), 11 hr [3]: 6.18
2 | O=C[C@H](O)[C@@H](O)[C@H](O)[C@H](O)COP(=O)(O)O [D-Glucose-6-Phosphate] | 1.14 | 1.18 | 3.24 | 1.30 | 0.74 | 1.28 | 1.38 | 2.69 | 1.87 | 1.14 | 1.48 | 2.93 | 2.01 | 3.00 | 3.61 | 4.04 | 5.47 | 6.35 | 7.41 | 7.21 | Substrate use, 590 nm absorbance normalized to zero hour, 1 hr [4]: 2.01; Substrate use, 590 nm absorbance normalized to zero hour, 5 hr [4]: 4.92; Substrate use, 590 nm absorbance normalized to zero hour, 7 hr [4]: 5.87; 590 nm absorbance normalized to zero hour (substrate use), 11 hr [2]: 5.87
3 | O=C(CO)[C@@H](O)[C@@H](O)[C@H](O)CO [D-Tagatose] | 1.07 | 1.01 | 0.88 | 0.28 | 0.49 | 0.34 | 0.36 | 0.37 | 0.39 | 1.07 | 0.29 | 0.32 | 0.17 | 0.24 | 0.28 | 0.30 | 0.39 | 0.44 | 0.49 | 0.51 | 590 nm absorbance normalized to zero hour (substrate use), 5 hr [2]: 0.36; 590 nm absorbance normalized to zero hour (substrate use), 7 hr [2]: 0.42; 590 nm absorbance normalized to zero hour (substrate use), 1 hr [3]: 0.17; 590 nm absorbance normalized to zero hour (substrate use), 2 hr [3]: 0.24; 590 nm absorbance normalized to zero hour (substrate use), 3 hr [3]: 0.28; 590 nm absorbance normalized to zero hour (substrate use), 4 hr [3]: 0.30; 590 nm absorbance normalized to zero hour (substrate use), 5 hr [3]: 0.36; 590 nm absorbance normalized to zero hour (substrate use), 6 hr [3]: 0.39; 590 nm absorbance normalized to zero hour (substrate use), 7 hr [3]: 0.42; 590 nm absorbance normalized to zero hour (substrate use), 8 hr [3]: 0.44; 590 nm absorbance normalized to zero hour (substrate use), 9 hr [3]: 0.49; 590 nm absorbance normalized to zero hour (substrate use), 10 hr [3]: 0.51; 590 nm absorbance normalized to zero hour (substrate use), 11 hr [3]: 0.48
4 | O=C[C@H](O)[C@@H](O)[C@@H](O)CO [L-Arabinose] | 1.72 | 2.30 | 2.99 | 3.04 | 2.95 | 3.74 | 4.05 | 4.01 | 4.09 | 1.72 | 3.33 | 3.87 | 1.79 | 2.45 | 3.01 | 3.10 | 3.66 | 4.01 | 4.41 | 4.50 | 590 nm absorbance normalized to zero hour (substrate use), 5 hr [2]: 3.49; 590 nm absorbance normalized to zero hour (substrate use), 7 hr [2]: 3.82; 590 nm absorbance normalized to zero hour (substrate use), 11 hr [2]: 4.78; 590 nm absorbance normalized to zero hour (substrate use), 1 hr [3]: 1.79; 590 nm absorbance normalized to zero hour (substrate use), 2 hr [3]: 2.45; 590 nm absorbance normalized to zero hour (substrate use), 3 hr [3]: 3.01; 590 nm absorbance normalized to zero hour (substrate use), 4 hr [3]: 3.10; 590 nm absorbance normalized to zero hour (substrate use), 5 hr [3]: 3.49; 590 nm absorbance normalized to zero hour (substrate use), 6 hr [3]: 3.66; 590 nm absorbance normalized to zero hour (substrate use), 7 hr [3]: 3.82; 590 nm absorbance normalized to zero hour (substrate use), 8 hr [3]: 4.01; 590 nm absorbance normalized to zero hour (substrate use), 9 hr [3]: 4.41; 590 nm absorbance normalized to zero hour (substrate use), 10 hr [3]: 4.50; 590 nm absorbance normalized to zero hour (substrate use), 11 hr [3]: 4.78
